# In publication PMC8522752 (Antimicrobial Agents and Chemotherapy, 2021):
# Read-outs that look alike come from different tables or passages of the source.
# Key:
# [1] = test system: DENV2 (clinical isolate); assay: DENV2 clinical isolate CPE inhibition in BHK-21 cells (MTT); type: cell-based, dengue virus
# [2] = test system: Yellow Fever virus YFV 17D; assay: microbe, parasite or virus in culture; type: cell-based; details: Huh-7, read-out: EC50 (inhibition of virus-induced CPE)
# [3] = test system: flaviviruses; assay: microbe, parasite or virus in culture
# [4] = in vitro; details: African green monkey
# [5] = test system: Powassan virus LB; assay: microbe, parasite or virus in culture; type: cell-based; details: BHK-21, read-out: EC50 (inhibition of virus-induced CPE)
# [6] = test system: Powassan virus Spooner; assay: microbe, parasite or virus in culture; type: cell-based; details: BHK-21, read-out: EC50 (inhibition of virus-induced CPE)
# [7] = test system: Rhinovirus; assay: Antiviral specificity panel, Rhinovirus in H1-HeLa; type: cell-based; details: Enterovirus, Rhinovirus (RNA), read-out: EC50 (inhibit viral replication 50%)
# [8] = Plasma pharmacokinetics in cynomolgus monkeys after oral AT-752; details: monkeys, oral AT-752 300 mg/kg
# [9] = test system: Usutu virus TC-508; assay: Neutral red CPE inhibition assay, Usutu TC-508 in Huh-7; type: cell-based; details: Huh-7, read-out: EC50 (inhibition of virus-induced CPE)
# [10] = test system: West Nile virus Kern 515, WNo2; assay: Neutral red CPE inhibition assay, West Nile virus in Huh-7; type: cell-based; details: West Nile Kern 515, WNo2, Huh-7, neutral red assay, read-out: EC50 (inhibition of virus-induced CPE)
# [11] = test system: Powassan virus Spooner; assay: microbe, parasite or virus in culture; type: cell-based; details: BHK-21, read-out: EC90 (reduce virus yield by 1 log10) (converted)
# [12] = test system: DENV2 (clinical isolate); assay: DENV2 clinical isolate CPE inhibition in human PBMCs (MTT); type: cell-based, dengue virus
# [13] = test system: Adenovirus; assay: Antiviral specificity panel, Adenovirus in Vero; type: cell-based; details: unidentified adenovirus, Adenovirus (DNA), read-out: EC50 (inhibit viral replication 50%)
# [14] = test system: BHK-21 cells; details: hamster
# [15] = test system: West Nile virus Kern 515, WNo2; assay: microbe, parasite or virus in culture; type: cell-based; details: West Nile Kern 515, WNo2, Huh-7, VYR assay, read-out: EC90 (reduce virus yield by 1 log10) (converted)
# [16] = mice, 1,000 mg/kg loading then 500 mg/kg BID for 3 days, oral
# [17] = in vivo; details: male, CD-1, mouse, po, 420 mg/kg
# [18] = test system: Yellow Fever virus YFV 17D; assay: microbe, parasite or virus in culture; type: cell-based; details: Huh-7, read-out: EC90 (reduce virus yield by 1 log10) (converted)
# [19] = test system: Dengue-2 New Guinea C; assay: Neutral red CPE inhibition assay, Dengue-2 New Guinea C in Huh-7; type: cell-based; details: Dengue virus, Huh-7, neutral red assay, read-out: EC50 (inhibition of virus-induced CPE)
# [20] = test system: Respiratory syncytial virus; assay: Antiviral specificity panel, respiratory syncytial virus in HEp2; type: cell-based; details: human respiratory syncytial virus, HEp-2, Respiratory syncytial virus (RNA), read-out: EC50 (inhibit viral replication 50%)
# [21] = test system: Japanese encephalitis virus SA-14; assay: Neutral red CPE inhibition assay, Japanese encephalitis SA-14 in Huh-7; type: cell-based; details: Japanese encephalitis SA-14, Huh-7, neutral red assay, read-out: EC50 (inhibition of virus-induced CPE)
# [22] = test system: Influenza A and B; assay: Antiviral specificity panel, Influenza A and B in MDCK; type: cell-based; details: Influenza A virus, Influenza A and B (RNA), read-out: EC50 (inhibit viral replication 50%)
# [23] = test system: Powassan virus LB; assay: microbe, parasite or virus in culture; type: cell-based; details: BHK-21, read-out: EC90 (reduce virus yield by 1 log10) (converted)
# [24] = test system: Dengue-3 H87; assay: Neutral red CPE inhibition assay, Dengue-3 H87 in Huh-7; type: cell-based; details: Dengue virus; Dengue-3 H87, Huh-7, neutral red assay; read-out: EC50 (inhibition of virus-induced CPE)
# [25] = test system: HIV-1; assay: Antiviral specificity panel, HIV-1 in CEM-SS; type: cell-based; details: Human immunodeficiency virus 1, HIV-1 (RNA), read-out: EC50 (inhibit viral replication 50%)
# [26] = Cytotoxicity in uninfected BHK-21 cells (MTT, DENV2 study); type: cell-based; details: hamster, BHK-21 without virus, Dengue-2 clinical isolate study, bound = highest concentration tested
# [27] = in vitro; details: human, hamster
# [28] = test system: Usutu virus TC-508; assay: microbe, parasite or virus in culture; type: cell-based; details: Usutu TC-508, Huh-7, VYR assay, read-out: EC90 (reduce virus yield by 1 log10) (converted)
# [29] = test system: Herpes simplex-1; assay: Antiviral specificity panel, Herpes simplex-1 in Vero; type: cell-based; details: Herpes simplex-1 (DNA), read-out: EC50 (inhibit viral replication 50%)
# [30] = Cardiomyocyte assay (CellTiter Glo); type: cell-based; details: human iPS cardiomyocytes
# [31] = Plasma pharmacokinetics in Sprague Dawley rats after oral AT-752; details: rat, oral AT-752 300 mg/kg, earliest time point measured
# [32] = test system: flaviviruses
# [33] = in vivo; details: male, cynomolgus, cynomolgus monkey, po, 300 mg/kg
# [34] = test system: Zika virus MR766; assay: Neutral red CPE inhibition assay, Zika MR766 in Huh-7; type: cell-based; details: Huh-7, read-out: EC50 (inhibition of virus-induced CPE)
# [35] = in vitro; details: dog
# [36] = test system: Eastern equine encephalitis virus; assay: microbe, parasite or virus in culture; type: cell-based; details: Huh-7, read-out: EC50 (inhibit viral replication 50%)
# [37] = test system: Chikungunya virus; assay: Antiviral specificity panel, Chikungunya in Huh-7; type: cell-based; details: Chikungunya (RNA), read-out: EC50 (inhibit viral replication 50%)
# [38] = test system: HCV; assay: Antiviral specificity panel, HCV in Huh-7; type: cell-based, hepatitis C virus
# [39] = test system: Dengue-2 New Guinea C; assay: microbe, parasite or virus in culture; type: cell-based; details: Huh-7, VYR assay, read-out: EC90 (reduce virus yield by 1 log10) (converted)
# [40] = test system: Rift Valley fever virus; assay: microbe, parasite or virus in culture; type: cell-based; details: Huh-7, read-out: EC50 (inhibit viral replication 50%)
smiles,measurement,setting,value
CNc1nc(N)nc2c1ncn2[C@@H]1O[C@H](CO[P@](=O)(N[C@@H](C)C(=O)OC(C)C)Oc2ccccc2)[C@@H](O)[C@@]1(C)F [AT-281],EC50,"[1]; Dengue virus, DENV2, BHK-21, read-out: EC50 (inhibition of virus-induced CPE), Dengue-2 clinical isolate, BHK-21",0.63 µM
same,EC50,"[1]; read-out: EC50 (inhibition of virus-induced CPE), Dengue-2 clinical isolate, BHK-21",1.1 µM
same,EC50,[2],0.31 µM
same,EC50,"[3]; Dengue virus, DENV2 / DENV3, read-out: EC50 values, all other flaviviruses tested",0.19 to 1.41 µM
same,EC50,"[3]; Orthoflavivirus, in Homo sapiens, 144 h, read-out: EC50 of the virus-induced cytopathic effect (CPE), range over Table 1",0.21 to 1.41 µM
same,CC50,[4],> 100 µM
same,EC50,[5],0.64 µM
same,EC50,[6],0.29 µM
same,EC50,[7],> 100 µM
same,time present in plasma,[8],more than 4 h
same,EC50,[9],0.19 µM
same,EC50,[10],1.41 µM
same,EC90,[11],0.74 µM
same,EC50,"[12]; Dengue virus, DENV2, PBMC, read-out: EC50 (inhibition of virus-induced CPE), Dengue-2 clinical isolate, human PBMC",0.6 µM
same,EC50,"[12]; read-out: EC50 (inhibition of virus-induced CPE), Dengue-2 clinical isolate, human PBMC",0.8 µM
same,EC50,[13],> 100 µM
same,CC50,[14],> 170 µM
same,EC90,[15],0.43 µM
same,tolerability (adverse clinical signs),[16],well tolerated
same,AUC(0-t),[17],4.2 ± 0.5 µM·h
same,Cmax,[17],2.6 ± 0.3 µM
same,Tmax,[17],48 ± 18 min
same,EC90,[18],0.26 µM
same,EC50,[19],0.48 µM
same,EC50,[20],> 100 µM
same,EC50,[21],0.21 µM
same,EC50,[22],> 100 µM
same,EC90,[23],2.6 µM
same,EC50,[24],0.77 µM
same,EC50,[25],> 100 µM
same,CC50 at 3 days,[26],> 170 µM
same,CC50,[27],85 to 170 µM
same,EC90,[28],0.72 µM
same,EC50,[29],> 100 µM
same,CC50 at 3 days,[30],> 100 µM
same,plasma concentration at 1 h,[31],below the limit of quantitation
same,SI (CC50/EC50),[32],> 210
same,cytotoxicity,[32],Little to no cytotoxicity
same,AUC(0-t),[33],9.5 ± 3.7 µM·h
same,Cmax,[33],3.7 ± 1.5 µM
same,Tmax,[33],60 min
same,EC50,[34],0.64 µM
same,CC50,[35],> 100 µM
same,EC50,[36],10.2 µM
same,EC50,[37],54.2 µM
same,selectivity toward HCV,[38],"> 2,000"
same,EC50,"[38]; Hepatitis C virus, HCV (RNA), read-out: EC50 (inhibit viral replication 50%)",0.05 µM
same,EC90,[39],0.64 µM
same,EC50,[40],> 100 µM
